# From patent publication US20250295639A1, “METHODS FOR TREATING HEART DISEASES” (Cytokinetics, Incorporated, priority 2024, published 2025)
# System: patients with symptomatic oHCM
# Test: SEQUOIA-HCM substudy: post-exercise oxygen uptake recovery (VO2Rec)
# Type: in vivo, human
# Method: Patients were randomized 1:1 to aficamten or placebo for 24 weeks with a primary endpoint of pVO2. For this analysis, VO2Rec delay was measured as the time taken after exercise cessation for VO2 to decline by >0%, 12.5% (t12.5%), 25%, or 50% of pVO2. Change in t12.5% from baseline (BL) to week 24 (W24) was the primary endpoint. […]
# [1] = LSM treatment difference vs placebo
# [2] = change from baseline to week 24
smiles,measurement,setting,value
"CCc1nc(-c2ccc3c(c2)CC[C@H]3NC(=O)c2cnn(C)c2)no1 [aficamten, (R)—N-(5-(5-ethyl-1,2,4-oxadiazol-3-yl)-2,3-dihydro-1H-inden-1-yl)-1-methyl-1H-pyrazole-4-carboxamide]",Peak VO2,Baseline,18.4 mL/min/kg
same,VO2 recovery 12.5%,Baseline,45 s
same,VO2 recovery 25%,Baseline,66 s
same,VO2 recovery 50%,Baseline,115 s
same,VO2 recovery delay,Baseline,19 s
same,"Peak VO2, Adjusted Δ",[1],1.7 mL/min/kg
same,"VO2 recovery 12.5%, Adjusted Δ",[1],-8 s
same,"VO2 recovery 25%, Adjusted Δ",[1],-7 s
same,"VO2 recovery 50%, Adjusted Δ",[1],-8 s
same,"VO2 recovery delay, Adjusted Δ",[1],-4 s
same,Peak VO2,Week 24,20.2 mL/min/kg
same,VO2 recovery 12.5%,Week 24,38 s
same,VO2 recovery 25%,Week 24,60 s
same,VO2 recovery 50%,Week 24,107 s
same,VO2 recovery delay,Week 24,15 s
same,improvement in pVO2,"aficamten group, W24",9%
same,improvement in t12.5% (VO2Rec delay),"aficamten group, W24",18%
same,"improving t12.5% by ≥15 seconds, NNT",aficamten vs placebo,4.8
same,"improving t12.5% by ≥15 seconds, OR",aficamten vs placebo,3.68
same,"Peak VO2, Absolute Δ",[2],1.8 mL/min/kg
same,"VO2 recovery 12.5%, Absolute Δ",[2],-7 s
same,"VO2 recovery 25%, Absolute Δ",[2],-6 s
same,"VO2 recovery 50%, Absolute Δ",[2],-8 s
same,"VO2 recovery delay, Absolute Δ",[2],-4 s
